How the values were obtained:
Assay type in all cases: cell-based
human CCR6 [1] = biological target: T1, human CCR6 (Homo sapiens, UniProt P51684); assay: CHO-K1 CCR6 chemotaxis assay towards CCL20; details: relative -LogIC50; CHO-K1 cells overexpressing human CCR6, 100 ng/ml CCL20, Transwell, 4 h
T1 sequence (P51684 1-374): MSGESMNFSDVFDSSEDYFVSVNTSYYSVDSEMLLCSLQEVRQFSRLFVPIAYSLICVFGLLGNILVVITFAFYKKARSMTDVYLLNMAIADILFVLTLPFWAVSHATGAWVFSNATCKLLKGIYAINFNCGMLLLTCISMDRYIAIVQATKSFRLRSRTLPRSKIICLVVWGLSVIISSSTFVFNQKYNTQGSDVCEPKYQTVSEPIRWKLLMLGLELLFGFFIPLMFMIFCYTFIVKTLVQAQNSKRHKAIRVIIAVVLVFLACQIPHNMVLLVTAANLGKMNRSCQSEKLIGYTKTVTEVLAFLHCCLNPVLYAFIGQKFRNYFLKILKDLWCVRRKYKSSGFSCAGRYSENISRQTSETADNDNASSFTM
Text: Cells overexpressing human CCR6 were used in the chemotaxis assay (DiscoverX, CAMP Hunter™ CHO-K1 CCR6 Gi Cell Line). Growth medium of these cells consisted of DMEM/F12, non-essential Amino acids (1×NEAA, Gibco 11140050), 10% FBS and 1× pen/strep (Gibco 15140). For the chemotaxis assay, Corning Transwell plates were used with a pore size of 8 μm (Corning 351164). Cells were harvested using trypsin and diluted to 4*10^6 cells/ml in chemotaxis medium (DMEM, 0.25% BSA, pen/strep). Compounds were four-fold serially diluted in DMSO. Further dilutions were made in chemotaxis medium. Cells were incubated with test compounds for 30 min at 37° C. prior to initiation of the assay (2*10^6 cells/ml). Final DMSO concentration in the assay was 0.2%. Wells of the Transwell plates were filled with 200 μl chemotaxis medium containing 100 ng/ml CCL20 (R&D systems 360-MP). 50 μl of the cell/compound suspension was added to the inserts of the Transwell plates (100,000 cells/insert). The Transwell plates were placed in an incubator at 37° C., 5% CO2 for 4 h. After 4 h, the number of migrated cells was quantified using CellTiter Glo (Promega). Percentage inhibition values were calculated based on the low and high signal obtained with 0.2% DMSO in chemotaxis medium without and with CCL20, respectively. The relative-LogIC50 was determined with GraphPad Prism 9 using a four-parameter dose-response model.

human CCR6 [2] = biological target: T1, human CCR6; assay: Human CCR6-Cre reporter assay; set-up: The second construct contained the open reading frame of human CCR6 in the pUNO1 backbone; host or cells: 293 FT cells; details: relative -LogIC50; transfected 293 FT cells, 6 μM Forskolin, 6 nM CCL20, luciferase readout, 5h
Experimental: 293 FT cells were transfected with 2 constructs using TransIT-293 (Mirus). The first construct (pGL4.29, Promega) expressed the luciferase reporter gene luc2P in response to the binding of cAMP-induced CREB to the CRE element in its promoter. The second construct contained the open reading frame of human CCR6 in the pUNO1 backbone under the control of an enhanced CMV promoter (In VivoGen). 48h after transfection, cells were harvested and diluted to 750,000 cells/ml in culture medium (DMEM, 10% FBS, 1× pen/strep (Gibco 15140)). Compounds were 2.5-fold serially diluted in DMSO. Further dilutions were made in assay medium (DMEM, 10% FBS, 1× pen/strep, 6 μM Forskolin, 6 nM CCL20). 4 μl of the compound solution was added to a white MW384 plate, followed by 20 μl of the cell suspension. Final DMSO concentration in the assay was 0.1%. The MW384 plate was placed in an incubator at 37° C., 5% CO2 for 5h. Luciferase activity was determined by addition of 24 μl of a 2.5× diluted BriteLite luciferase solution (Perkin Elmer), followed by luminescence measurement using a VICTOR Plate reader (Perkin Elmer). […] The relative-LogIC50 was determined with GraphPad Prism 9 using a four-parameter dose-response model.

Human CD4+ T cells = assay: CD4+ T cell chemotaxis assay towards CCL20; details: relative -LogIC50, 150 ng/ml CCL20, Transwell, 3 h
Text: Human CD4+ T cells were isolated from buffy coats of healthy donors using a CD4+ T Cell Isolation Kit (Miltenyi Biotec130-096-533). Isolated T cells were stimulated overnight with anti-CD3 and anti-CD28 antibodies (Biolegend 300314/302934) in growth medium (RPMI1640, 10% heat-inactivated FBS, 1× pen/strep (Gibco 15140)). For the chemotaxis assay, Corning Transwell plates were used with a pore size of 5 μm (Corning 3388). T cells were counted and diluted to 6*10^6 cells/ml in chemotaxis medium (RPMI1640, 1% BSA, pen/strep). Compounds were four-fold serially diluted in DMSO. Further dilutions were made in chemotaxis medium. Cells were incubated with test compounds for 30 min at 37° C. prior to initiation of the assay (3*10^6 cells/ml). Final DMSO concentration in the assay was 0.2%. Wells of the Transwell plates were filled with 200 μl chemotaxis medium containing 150 ng/ml CCL20 (R&D systems 360-MP). 50 μl of the cell/compound suspension was added to the inserts of the Transwell plates (150,000 cells/insert). The Transwell plates were placed in an incubator at 37° C., 5% CO2 for 3 h. After 3 h, the number of migrated cells was quantified using CellTiter Glo (Promega). Percentage inhibition values were calculated based on the low and high signal obtained with 0.2% DMSO in chemotaxis medium without and with CCL20, respectively. The relative −LogIC50 was determined with GraphPad Prism 9 using a four-parameter dose-response model.

Compound	IC50 (human CCR6 [1]) [nM]	IC50 (human CCR6 [2]) [nM]	IC50 (Human CD4+ T cells) [nM]
NC(=O)c1ccc(-c2ccc(S(=O)(=O)N3CCC(Nc4ccc(C5(C(F)(F)F)CC5)cc4)CC3)cc2)cc1 [Example 7, 4′-{[4-({4-[1-(trifluoromethyl)cyclopropyl]phenyl}Amino)piperidin-1-yl]sulfonyl}-[1,1′-biphenyl]-4-carboxamide]	126	200	
N#Cc1c[nH]c2ccc(-c3ccc(S(=O)(=O)N4CCC(Nc5ccc(C6CC6)cc5)CC4)cc3)cc12 [Example 12, 5-[4-({4-[(4-cyclopropylphenyl)Amino]piperidin-1-yl}sulfonyl)phenyl]-1H-indole-3-carbonitrile]	251	251	
N#Cc1c[nH]c2ccc(-c3ccc(S(=O)(=O)[C@H]4CC[C@H](Nc5ccc(C6(C(F)(F)F)CC6)cc5)CC4)cc3)cc12 [Example 16, 5-(4-{[trans-4-({4-[1-(trifluoromethyl)cyclopropyl]phenyl}Amino)cyclohexyl]sulfonyl}phenyl)-1H-indole-3-carbonitrile]	5.01	20	
O=S(=O)(c1ccc(-c2ccc3nccn3c2)cc1)[C@H]1CC[C@H](Nc2ccc(C3(C(F)(F)F)CC3)cc2)CC1 [Example 17, N-[trans-4-(4-{imidazo[1,2-a]pyridin-6-yl}benzenesulfonyl)cyclohexyl]-4-[1-(trifluoromethyl)cyclopropyl]aniline]	39.8	100	
N#Cc1c[nH]c2ccc(-c3ccc(S(=O)(=O)[C@H]4CC[C@H](Nc5ccc(C6COC6)cc5)CC4)cc3)cc12 [Example 19, 5-(4-{[trans-4-{[4-(oxetan-3-yl)phenyl]Amino}cyclohexyl]sulfonyl}phenyl)-1H-indole-3-carbonitrile]	251	63.1	
CC(C)c1cnc2ccc(-c3ccc(S(=O)(=O)[C@H]4CC[C@H](Nc5ccc(C6(C(F)(F)F)CC6)cc5)CC4)cc3)cn12 [Example 20, N-[trans-4-{4-[3-(propan-2-yl)imidazo[1,2-a]pyridin-6-yl]benzenesulfonyl}cyclohexyl]-4-[1-(trifluoromethyl)cyclopropyl]aniline]	3.98	100	

The remaining lines, values ahead:

IC50 (human CCR6 [1]) [nM]	IC50 (human CCR6 [2]) [nM]	IC50 (Human CD4+ T cells) [nM]	Compound
15.8	50.1	0.631	CC(C)c1nnc2ccc(-c3ccc(S(=O)(=O)N4CCC(Nc5ccc(C6(C(F)(F)F)CC6)cc5)CC4)cc3)cn12 [Example 40, 1-{4-[3-(propan-2-yl)-[1,2,4]triazolo[4,3-a]pyridin-6-yl]benzenesulfonyl}-N-{4-[1-(trifluoromethyl)cyclopropyl]phenyl}piperidin-4-amine]
6.31	50.1	6.31	O=S(=O)(c1ccc(-c2ccc3nnc(C(F)F)n3c2)cc1)N1CCC(Nc2ccc(C3(C(F)(F)F)CC3)cn2)CC1 [Example 44, N-(1-{4-[3-(difluoromethyl)-[1,2,4]triazolo[4,3-a]pyridin-6-yl]benzenesulfonyl}piperidin-4-yl)-5-[1-(trifluoromethyl)cyclopropyl]pyridin-2-amine]
20	31.6	7.94	NC(=O)c1cc(-c2ccc(S(=O)(=O)N3CCC(Nc4ccc(C5(C(F)(F)F)CC5)cn4)CC3)cc2)ccn1 [Example 45, 4-(4-{[4-({5-[1-(trifluoromethyl)cyclopropyl]pyridin-2-yl}amino)piperidin-1-yl]sulfonyl}phenyl)pyridine-2-carboxamide]
15.8	63.1	2	Cc1cc(-c2ccc(S(=O)(=O)N3CCC(Nc4ccc(C5(C(F)(F)F)CC5)cn4)CC3)cc2)cn2c(C(C)C)nnc12 [Example 46, N-(1-{4-[8-methyl-3-(propan-2-yl)-[1,2,4]triazolo[4,3-a]pyridin-6-yl]benzenesulfonyl}piperidin-4-yl)-5-[1-(trifluoromethyl)cyclopropyl]pyridin-2-amine]

From patent publication US20260034125A1, “N-PHENYL-1-(PHENYLSULFONYL)PIPERIDIN-4-AMINE DERIVATIVES AS CCR6 INHIBITORS” (priority 2023, published 2026)
